According to US20190376046A1, “METHODS FOR MANIPULATING CELL FATE” (The McLean Hospital Corporation, priority 2017, published 2019):
pEC50, pIC50: −log10 of the molar value.

Assays:
[1] = tested on: hDFs; assay: Human iPSC induction, AP-positive colonies; assay type: cell-based; settings: 1 mM or higher concentration; fibroblasts
Description: Human dermal fibroblasts (hDFs) were cultured in Dulbecco's modified Minimal Essential Medium (DMEM; Invitrogen, Carlsbad, Calif.) supplemented with 2 mM L-glutamine (Invitrogen), 10% fetal bovine serum (FBS; Invitrogen), 100 U/ml penicillin and 100 μg/ml streptomycin (Invitrogen). For iPSC induction, DMEM/F-12 medium supplemented with 2 mM L-glutamine (Invitrogen), 1 mM […] (Invitrogen), 1× non-essential amino acids (NEAA; Invitrogen), 20% knock-out serum replacement (KSR; Invitrogen), 100 U/ml penicillin, 100 μg/ml streptomycin (Invitrogen) and 10 ng/ml basic fibroblast growth factor (bFGF; Invitrogen) was used as the reprogramming medium. Human ESC lines and hiPSC lines were maintained in Essential 8 medium (Invitrogen) using Matrigel® Matrix (Corning Life Sciences, Tewksbury, Mass.) and passaged using 0.5 mM EDTA (Invitrogen) for gentle dissociation.
Human iPSCs were generated using lentiviral particles by inducible lentiviral vectors or STEMCCA vectors to introduce the OSKM factors (Oct4, Sox2, Klf4, and c-Myc) into fibroblasts^49. ES-like colonies formed after 3 weeks of viral infection and the observed ES-like colonies were handpicked and transferred onto mouse feeder cells (MEF)-plated or Matrigel-coated tissue culture plates to generate iPSC lines. iPSC colonies were mechanically picked until iPSC lines were established.

[2] = tested on: human dermal fibroblasts (hDFs); assay: Live cell metabolic analysis (Seahorse XF, OCR/ECAR) in fibroblasts; assay type: cell-based; settings: 0.2 mM; Y4+SIRT2 KD fibroblasts
Description: Oxygen consumption rate (OCR) and extracellular acidification rates (ECAR) were measured using the XFp8 or XF24 analyzer (Seahorse Bioscience, MA) according to the manufacturer's instruction. Briefly, cells were plated into wells of an XF cell culture microplate and incubated at 37° C. in a CO2 incubator for 24 h to ensure attachment. The assay was started after cells were equilibrated for 1 h in XF assay medium supplemented with 10 mM glucose, 5 mM sodium pyruvate and 2 mM glutamine in a non-CO2 incubator. Mitochondrial activity between hDFs and hESCs/parental hDFs and iPSCs were monitored through sequential injections of 1 μM oligomycin, […] FCCP and 1 μM rotenone/antimycin A to calculate basal respiration rates (baseline OCR—rotenone/antimycin A OCR), ATP dependent (basal respiration rate—oligomycin OCR), maximum respiration (FCCP OCR— rotenone/antimycin A OCR), and oxidative reserve (maximum respiration rate—basal respiration rate). Glycolytic processes were measured by serial injections of 10 mM glucose, 1 μM oligomycin, and 100 mM 2-deoxyglucose to calculate basal glycolytic rate, glycolytic capacity (in response to oligomycin), and glycolytic reserve (glycolytic capacity—basal rate). Each plotted value was normalized to total protein quantified using a Bradford protein assay (Bio-Rad).

[3] = target: T1, SIRT1 (Homo sapiens, UniProt Q96EB6); settings: cited from earlier work
T1 sequence (Q96EB6 1-747): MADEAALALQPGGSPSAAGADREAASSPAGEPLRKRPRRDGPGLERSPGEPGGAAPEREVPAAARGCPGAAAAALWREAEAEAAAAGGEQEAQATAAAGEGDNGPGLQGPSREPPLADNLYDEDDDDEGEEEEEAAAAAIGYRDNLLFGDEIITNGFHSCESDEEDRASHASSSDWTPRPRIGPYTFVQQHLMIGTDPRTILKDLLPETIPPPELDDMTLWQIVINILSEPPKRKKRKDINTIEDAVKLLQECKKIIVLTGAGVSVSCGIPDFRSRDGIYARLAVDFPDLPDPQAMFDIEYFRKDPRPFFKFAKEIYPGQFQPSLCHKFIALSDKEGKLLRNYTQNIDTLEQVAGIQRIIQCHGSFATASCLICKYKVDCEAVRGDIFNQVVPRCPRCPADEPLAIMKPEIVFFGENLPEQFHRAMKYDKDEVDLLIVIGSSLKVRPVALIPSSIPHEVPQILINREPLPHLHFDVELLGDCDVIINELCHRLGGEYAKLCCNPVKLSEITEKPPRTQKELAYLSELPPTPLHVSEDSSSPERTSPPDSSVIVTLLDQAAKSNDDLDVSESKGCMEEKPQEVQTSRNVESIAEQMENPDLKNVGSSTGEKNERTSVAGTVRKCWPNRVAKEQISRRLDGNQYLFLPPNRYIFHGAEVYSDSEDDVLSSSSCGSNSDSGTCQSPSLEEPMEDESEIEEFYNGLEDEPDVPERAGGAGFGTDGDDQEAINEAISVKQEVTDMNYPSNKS

[4] = tested on: hPSCs (H9, H7, hiPSC-1, hiPSC-2); assay: Annexin V/7-AAD staining (apoptosis); assay type: cell-based, human; settings: pretreatment; hPSCs with Dox-induced SIRT2 OE
[5] = tested on: PI3K; settings: read-out: IC50 (PI3K inhibitor); cited from earlier work
[6] = target: T2, SIRT2 (Homo sapiens, UniProt Q8IXJ6); settings: relative to SIRT1; cited from earlier work
T2 sequence (Q8IXJ6 1-389): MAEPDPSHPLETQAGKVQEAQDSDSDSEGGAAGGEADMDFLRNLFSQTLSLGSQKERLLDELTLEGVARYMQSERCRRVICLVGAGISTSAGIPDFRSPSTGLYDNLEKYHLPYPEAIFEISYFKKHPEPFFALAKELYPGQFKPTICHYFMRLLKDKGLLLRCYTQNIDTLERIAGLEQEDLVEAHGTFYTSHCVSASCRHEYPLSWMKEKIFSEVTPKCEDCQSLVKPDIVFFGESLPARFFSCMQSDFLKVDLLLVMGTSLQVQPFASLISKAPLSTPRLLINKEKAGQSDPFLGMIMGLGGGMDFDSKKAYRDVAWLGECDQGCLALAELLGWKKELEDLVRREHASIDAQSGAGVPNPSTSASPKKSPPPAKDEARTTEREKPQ

[7] = target: T3, SIRT3 (Homo sapiens, UniProt Q9NTG7); settings: cited from earlier work
T3 sequence (Q9NTG7 1-399): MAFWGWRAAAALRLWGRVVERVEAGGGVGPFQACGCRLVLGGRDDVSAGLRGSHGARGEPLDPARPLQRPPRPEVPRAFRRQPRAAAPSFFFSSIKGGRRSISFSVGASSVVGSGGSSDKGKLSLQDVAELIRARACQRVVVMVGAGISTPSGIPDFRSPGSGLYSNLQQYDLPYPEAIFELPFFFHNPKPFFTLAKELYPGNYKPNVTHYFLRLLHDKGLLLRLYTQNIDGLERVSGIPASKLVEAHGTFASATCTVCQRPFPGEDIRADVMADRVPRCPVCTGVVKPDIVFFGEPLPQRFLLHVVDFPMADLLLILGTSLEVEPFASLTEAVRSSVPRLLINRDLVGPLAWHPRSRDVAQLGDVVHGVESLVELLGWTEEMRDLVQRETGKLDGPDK

[8] = tested on: SIRT2; assay: SIRT2 expression by qRT-PCR and western blot after pre-miRNA transfection; assay type: cell-based, human; settings: fibroblasts transfected with pre-miRNA
Description: Samples (50 μg) were loaded onto a 12% SDS-PAGE and separated by electrophoresis followed by transfer onto a piece of Immun-Blot PVDF membrane (Bio-Rad, Hercules, Calif.). After transfer, the membrane was blocked at room temperature with Tris-buffered saline (TBS) containing 0.1% Tween-20 and 5% (w/v) skim milk for 3-5 h and then incubated overnight at 4° C. with primary antibody. The membrane was washed three times with TBS containing 0.05% Tween-20 (TBST) and then incubated for 2 h with the appropriate secondary antibody (Pierce, Rockford, Ill.). After washing twice with TBST and once with TBS, bound antibodies were detected by chemiluminescence using the SuperSignal® West Pico kit (Pierce). […]
Total RNA was extracted from cells by using the Direct-zol RNA purification Kit (Zymo research, Irvine, Calif.) and cDNA was synthesized using the ThermoScript™ RT-PCR system (Invitrogen). For quantitative analysis, qRT-PCR (Bio-Rad) was performed using SsoAdvanced SYBR Green supermix (Bio-Rad) with target genes specific primers. […]

[9] = tested on: CDS fragments of SIRT2 (MREs); assay: Luciferase reporter assay; assay type: cell-based, human; settings: 293T cells, psicheck2 SIRT2 CDS fragments
From the text: Human SIRT1 or SIRT2 was PCR-amplified from hESCs (H9) or hDFs, respectively, then cloned into the pGEM®-T Easy vector (Promega, Madison, Wis.). The 2A sequence of the Thoseaasigna virus (T2A)-linked EGFP was amplified from pCXLE-EGFP plasmid (#27082; Addgene, Cambridge, Mass.) by […], cloned into the […] vector. The SIRT1 and SIRT2 fragments were then cut off from the corresponding vectors and inserted into the pGEM-T-T2A-EGFP to generate pGEM-T-SIRT1-T2A-EGFP and pGEM-T-SIRT2-T2A-EGFP, respectively. The SIRT1-T2A-EGFP and SIRT2-T2A-EGFP constructs were confirmed by sequencing and then introduced into the EcoRI site of FUW-tetO vector (Addgene), respectively. Human AldoA-Myc constructs, the AldoA fragment was PCR-amplified from hESCs (H9), and then cloned into the pcDNA3.1-Myc/His vector (Invitrogen). For the psicheck2 constructs, the CDS fragments were cloned in downstream of a Renilla luciferase open reading frame. […]
The Promega dual luciferase assay kit was used to perform the luciferase assay according to the manufacturer's instruction. In brief, cell lysates were analyzed for luciferase activity using the dual luciferase system in which two luciferase enzymes, one (from Renilla reniformis) containing the experimental target sequence and another (from firefly) containing the control. […]

O=CC[C@@H](O)[C@H](O)[C@H](O)CO [2DG, 2-deoxy-glucose]
generation of iPSC-like colonies [1]: completely blocked
glycolytic flux [2]: decreased the glycolytic flux in Y4+SIRT2 KD to the level of Y4 only without 2DG

N#C/C(=C\c1ccc(-c2cc(Cl)ccc2Cl)o1)C(=O)Nc1cccc2ncccc12 [AGK2]
effect on SIRT1 ([3]; at 10-fold higher levels than SIRT2 IC50): minimally affects

CC(=O)N[C@@H](CS)C(=O)O [N-acetyl-L-Cysteine]
SIRT2-induced cell death [4]: rescued

O=c1c(O)c(-c2ccc(O)c(O)c2)oc2cc(O)cc(O)c12 [Quercetin]
pIC50 [5]: 5.27 to 5.62

O=C(Nc1ccccc1-c1cn2c(CN3CCNCC3)csc2n1)c1cnc2ccccc2n1 [SRT1720]
fold less potent for SIRT2 [6]: > 230 fold
pEC50 ([3]; cell-free assay, read-out: EC50 (SIRT1 activator)): 6.80
fold less potent for SIRT3 ([7]; relative to SIRT1): > 230 fold

CN(C)CCCCC(=O)Nc1ccc(NC(=S)NC(=O)c2ccc(C(C)(C)C)cc2)cc1 [Tenovin-6]
pIC50 ([7]; purified human SIRT3 in vitro, read-out: IC50 protein deacetylase activity of SIRT3): 4.17

CCCCCCCCCCCCCC(=S)NCCCC[C@H](NC(=O)OCc1ccccc1)C(=O)Nc1ccccc1 [Thiomyristoyl]
inhibition of SIRT3 ([7]; at 200 μM): does not inhibit SIRT3 even at 200 μM

pre-miR-200c-5p: precursor miRNA oligomer of miR-200c-5p, CGUCUUACCCAGCAGUGUUUGG (SEQ ID NO: 1) (further chemistry not given here; listed as Homo sapiens)
SIRT2 expression (mRNA and protein) [8]: significantly decreased
reporter expression of both MREs [9]: significantly decreased
